In PMC5471521, “Novel selective β1-adrenoceptor antagonists for concomitant cardiovascular and respiratory disease” (The FASEB Journal, 2017):
Where two headings read alike, the source gives them in different places.

Columns and labels:
human β2-AR [1] = molecular target: T1, human β2-AR (Homo sapiens, UniProt P07550); test: 3H-CGP12177 whole-cell binding in CHO-β2 cells; conditions: mean ± SEM, cells marked ^a are apparent log Kd (specific binding not fully inhibited)
T1 construct: expressed in transfected cells
T1 sequence (P07550 whole entry): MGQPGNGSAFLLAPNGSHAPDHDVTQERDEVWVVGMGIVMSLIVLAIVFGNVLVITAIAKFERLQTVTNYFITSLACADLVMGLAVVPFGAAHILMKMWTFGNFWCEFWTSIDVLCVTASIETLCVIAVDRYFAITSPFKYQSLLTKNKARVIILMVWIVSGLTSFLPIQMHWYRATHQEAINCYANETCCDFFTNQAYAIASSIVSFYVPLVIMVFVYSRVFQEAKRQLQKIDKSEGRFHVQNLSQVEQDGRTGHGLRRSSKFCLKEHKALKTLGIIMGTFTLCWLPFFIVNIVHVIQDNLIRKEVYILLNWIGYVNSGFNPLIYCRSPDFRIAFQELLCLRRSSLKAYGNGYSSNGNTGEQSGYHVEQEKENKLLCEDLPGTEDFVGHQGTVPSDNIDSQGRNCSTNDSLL

human β2-AR [2] = molecular target: T1, human β2-AR; test: Antagonism of cimaterol-induced 3H-cAMP accumulation in CHO-β2 cells; type: cell-based; conditions: cimaterol agonist, mean ± SEM, read-out: Log Kd,β2 (converted)
Protocol: Confluent cells were examined (24-well plates, 5 h incubation at 37°C) as described in Baker ([45]). Antagonist Kd values were calculated from a rightward shift of the agonist concentration response curve by using the Gaddum equation as previously described ([46]).

[3] = Lipophilicity (chromatographic logD); type: physicochemical; conditions: octanol/water, estimated from chromatographic retention
Protocol: Octanol–water partition coefficient values (logD) of NDD-713 and -825 were estimated as described in Lombardo et al. ([49]) by correlation of the chromatographic retention properties of compounds against the characteristics of standard compounds with known partition coefficient values. Studies were carried out by CDCO.

CYP2D6 = CYP2D6 (Homo sapiens, UniProt P10635); test: P450 in vitro clearance, recombinant Supersomes; type: in vitro ADME; conditions: 2 μM, hydrochloride salts used; one value printed for CYP2D6 and CYP2E1
CYP2D6, sequence (P10635 whole entry, canonical isoform): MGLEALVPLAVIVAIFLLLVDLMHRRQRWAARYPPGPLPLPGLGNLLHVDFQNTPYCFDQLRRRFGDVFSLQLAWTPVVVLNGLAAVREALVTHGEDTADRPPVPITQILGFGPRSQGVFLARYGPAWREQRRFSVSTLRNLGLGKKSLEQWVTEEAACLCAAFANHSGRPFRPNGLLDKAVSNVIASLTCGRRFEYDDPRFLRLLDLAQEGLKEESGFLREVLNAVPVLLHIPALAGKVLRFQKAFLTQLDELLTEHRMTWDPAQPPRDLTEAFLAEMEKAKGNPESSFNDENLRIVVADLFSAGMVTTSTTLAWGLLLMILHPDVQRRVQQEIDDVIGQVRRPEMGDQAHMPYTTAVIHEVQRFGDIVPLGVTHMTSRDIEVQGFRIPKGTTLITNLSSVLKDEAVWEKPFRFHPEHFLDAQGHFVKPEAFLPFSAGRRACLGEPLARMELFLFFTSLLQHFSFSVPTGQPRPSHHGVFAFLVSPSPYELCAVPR
Protocol: (§1) NDD-713.HCl and -825.HCl (2 μM) and cytochrome P450 (P450) reference substrates (see Supplemental Data for full details) were incubated (37°C) with selected recombinant human P450 isoforms (CYP1A2, CYP2A6, CYP2B6, CYP2C8, CYP2C9, CYP2C19, CYP2D6 CYP2E1, and CYP3A4) in heterologously expressed P450 Supersomes (BD Biosciences) that were suspended in […] Tris-HCl buffer (pH 7.4; for CYP2C9) or 100 mM phosphate buffer (pH 7.4; for the other isoforms) at final P450 concentrations of 85 pmol/ml. Reactions were initiated by additions of an NADPH-regenerating system and quenched at time points over 60 min (reference probes) or 120 min (test compounds) by acetonitrile. Quenched samples were centrifuged and supernatants were collected. NDD-713, -825, and probe metabolites were determined by UPLC-MS relative to calibration standards prepared in quenched matrix, and %substrate that remained was calculated relative to the initial sample concentration. The %substrate that remained vs. time was fitted to exponential decay functions to determine the pseudo first-order rate constant (k/min) for substrate depletion. These were normalized to P450 concentrations (pmol/ml) to obtain in vitro CLint values: CLint, in vitro (μl/min/pmol P450) = [k (min^−1)/P450 concentration […]] × 1000. Studies were carried out by CDCO.

CYP2E1 = molecular target: T2, CYP2E1 (Homo sapiens, UniProt P05181); test: P450 in vitro clearance, recombinant Supersomes; type: in vitro ADME; conditions: 2 μM, hydrochloride salts used; one value printed for CYP2D6 and CYP2E1
T2 construct: purchased BD Biosciences
T2 sequence (P05181 whole entry): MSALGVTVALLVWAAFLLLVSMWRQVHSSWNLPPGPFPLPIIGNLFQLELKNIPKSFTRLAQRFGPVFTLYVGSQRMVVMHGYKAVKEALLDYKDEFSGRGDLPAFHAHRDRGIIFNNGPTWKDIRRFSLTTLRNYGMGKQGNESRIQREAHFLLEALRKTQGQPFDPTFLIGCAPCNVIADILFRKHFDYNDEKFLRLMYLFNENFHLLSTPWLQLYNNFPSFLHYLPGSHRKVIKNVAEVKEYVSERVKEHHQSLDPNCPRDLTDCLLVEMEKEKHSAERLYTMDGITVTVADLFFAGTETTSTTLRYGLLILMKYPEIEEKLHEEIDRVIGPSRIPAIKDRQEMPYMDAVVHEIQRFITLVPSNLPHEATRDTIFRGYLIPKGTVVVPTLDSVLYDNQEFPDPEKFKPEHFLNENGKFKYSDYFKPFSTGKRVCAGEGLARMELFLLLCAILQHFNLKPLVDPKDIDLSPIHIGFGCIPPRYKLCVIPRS
Protocol: as §1

[4] = test system: HR (β1) and HQC (β2) in conscious rats; test: In vivo β1- vs. β2-selectivity, intravenous β-blocker, conscious rats (isoprenaline responses); design: species or system rat; conditions: i.v. 2 mg/kg bolus + 1 mg/kg/h infusion, n = 4
Protocol: (§2) Adult male Sprague-Dawley rats, weighing 300−400 g, were chronically instrumented with pulsed Doppler flow probes and intravascular catheters for cardiovascular monitoring and drug administration in a 2-stage surgical protocol as described ([51]). Surgery was performed under general anesthesia (fentanyl and medetomidine, 300 μg/kg of each, i.p.), with reversal and postoperative analgesia provided by atipamezole (1 mg/kg, s.c.) and buprenorphine (0.02 mg/kg, s.c.). Experiments were performed with animals that were fully conscious and unrestrained in home cages and given free access to food and water. Cardiovascular variables were recorded by using a customized, computer-based system (Instrument Development Engineering Evaluation, Maastrich Instruments Bv, Maastrich, The Netherlands) with raw data sampled every 2 ms. Hindquarters vascular conductance (HQC) was calculated as Doppler shift (flow)/mean arterial pressure.
Isoprenaline infusions were repeated during the final 60 min of β-blocker infusion and 3–4 and 23–24 h after β-blocker infusions finished.
(§3) Isoprenaline responses shown are absolute values for HR and HQC before the first dose of isoprenaline (baseline) and during the third minute of infusion of each dose. Values at baseline and during the highest isoprenaline dose were tested for statistical significance by using a nonparametric ANOVA test with correction for repeat measures [Quade test ([52])]. A value of P < 0.05 was taken as significant.

[5] = test system: HR (β1) and HQC (β2) in conscious rats; test: In vivo β1- vs. β2-selectivity, oral administration, conscious rats (isoprenaline responses); design: species or system rat; conditions: for Effect on basal and isoprenaline-stimulated HR after oral gavage: lightly sedated rats dosed by oral gavage, measured once fully recovered
Protocol: as §2
Experiments ran over 3 consecutive days. Lightly sedated rats (propofol at 0.1–0.2 ml of 10 mg/ml, i.v.) that were instrumented for cardiovascular monitoring were administered an oral dose of NDD-825.HCl (1 mg/kg on d 1, 3 mg/kg on d 2, 10 mg/kg on d 3; 10 ml/kg in water) by oral gavage. Each day, responses to isoprenaline infusions were monitored before and at 0.5–1.5 and 3–4 h after oral NDD-825.HCl administration.
as §3

5-HT2B = 5-HT2B (Homo sapiens, UniProt P41595); test: Cerep receptor radioligand-binding assay; conditions: concentration-response, Cheng-Prusoff
5-HT2B, sequence (P41595 whole entry): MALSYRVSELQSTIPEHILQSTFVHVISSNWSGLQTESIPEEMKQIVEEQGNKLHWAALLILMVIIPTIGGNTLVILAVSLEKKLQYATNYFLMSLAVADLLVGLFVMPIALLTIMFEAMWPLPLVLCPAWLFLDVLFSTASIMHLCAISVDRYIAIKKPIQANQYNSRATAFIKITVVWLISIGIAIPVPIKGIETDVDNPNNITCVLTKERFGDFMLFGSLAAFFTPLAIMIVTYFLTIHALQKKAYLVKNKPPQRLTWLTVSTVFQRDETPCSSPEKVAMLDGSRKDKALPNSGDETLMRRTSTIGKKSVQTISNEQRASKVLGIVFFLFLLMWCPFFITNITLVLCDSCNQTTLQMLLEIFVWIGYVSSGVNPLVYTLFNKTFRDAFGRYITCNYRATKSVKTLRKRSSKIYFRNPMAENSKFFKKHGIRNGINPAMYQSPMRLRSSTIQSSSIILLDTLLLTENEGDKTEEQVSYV
Protocol: (§4) […]; Ki (inhibition constant) was calculated by using the Cheng-Prusoff equation from the mean of duplicate determinations in cell-based receptor radioligand-binding assays. Cerep in vitro pharmacology profiling service was used (see the Supplemental Data for a list of the assays used).

dopamine transporter = dopamine transporter (Homo sapiens, UniProt Q01959); test: Cerep radioligand-binding assay
dopamine transporter, sequence (Q01959 whole entry): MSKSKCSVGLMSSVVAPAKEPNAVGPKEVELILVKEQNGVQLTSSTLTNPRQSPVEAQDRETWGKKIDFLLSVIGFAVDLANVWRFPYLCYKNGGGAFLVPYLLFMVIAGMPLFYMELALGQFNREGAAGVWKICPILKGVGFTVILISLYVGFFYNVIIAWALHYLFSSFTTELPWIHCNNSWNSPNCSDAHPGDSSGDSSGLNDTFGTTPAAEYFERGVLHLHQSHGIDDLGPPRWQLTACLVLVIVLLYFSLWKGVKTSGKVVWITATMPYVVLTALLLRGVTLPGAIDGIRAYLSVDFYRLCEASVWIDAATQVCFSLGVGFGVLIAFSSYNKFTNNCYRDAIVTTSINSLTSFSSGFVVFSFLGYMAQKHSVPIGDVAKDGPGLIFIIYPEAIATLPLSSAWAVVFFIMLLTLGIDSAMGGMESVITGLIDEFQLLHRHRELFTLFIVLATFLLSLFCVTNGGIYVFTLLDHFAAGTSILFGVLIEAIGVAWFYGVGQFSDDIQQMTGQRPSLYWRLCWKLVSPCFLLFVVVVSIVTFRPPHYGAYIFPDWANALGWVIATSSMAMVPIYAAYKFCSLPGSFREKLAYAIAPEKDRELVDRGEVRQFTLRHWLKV
Protocol: as §4

[6] = molecular target: noradrenaline transporter (Homo sapiens, UniProt P23975); test: Cerep radioligand-binding assay
noradrenaline transporter, sequence (P23975 whole entry): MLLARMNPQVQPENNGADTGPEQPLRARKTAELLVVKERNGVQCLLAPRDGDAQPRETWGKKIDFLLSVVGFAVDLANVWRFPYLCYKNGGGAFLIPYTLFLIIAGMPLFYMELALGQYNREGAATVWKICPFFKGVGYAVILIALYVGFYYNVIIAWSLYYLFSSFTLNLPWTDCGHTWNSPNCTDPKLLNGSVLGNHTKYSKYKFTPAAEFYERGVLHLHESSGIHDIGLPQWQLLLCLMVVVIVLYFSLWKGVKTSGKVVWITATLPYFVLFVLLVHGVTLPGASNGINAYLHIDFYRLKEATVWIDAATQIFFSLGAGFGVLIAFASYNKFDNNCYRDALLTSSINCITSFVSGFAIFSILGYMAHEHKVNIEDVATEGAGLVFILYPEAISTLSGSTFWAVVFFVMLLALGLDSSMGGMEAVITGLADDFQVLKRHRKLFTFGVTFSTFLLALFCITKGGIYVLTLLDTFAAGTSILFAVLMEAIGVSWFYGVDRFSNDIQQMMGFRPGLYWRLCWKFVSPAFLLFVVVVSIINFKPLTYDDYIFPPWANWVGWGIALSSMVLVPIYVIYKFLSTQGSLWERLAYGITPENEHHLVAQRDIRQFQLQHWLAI
Protocol: as §4

CYP2A6 = molecular target: T3, CYP2A6 (Homo sapiens, UniProt P11509); test: P450 in vitro clearance, recombinant Supersomes; type: in vitro ADME; conditions: 2 μM, hydrochloride salts used
T3 construct: purchased BD Biosciences
T3 sequence (P11509 whole entry): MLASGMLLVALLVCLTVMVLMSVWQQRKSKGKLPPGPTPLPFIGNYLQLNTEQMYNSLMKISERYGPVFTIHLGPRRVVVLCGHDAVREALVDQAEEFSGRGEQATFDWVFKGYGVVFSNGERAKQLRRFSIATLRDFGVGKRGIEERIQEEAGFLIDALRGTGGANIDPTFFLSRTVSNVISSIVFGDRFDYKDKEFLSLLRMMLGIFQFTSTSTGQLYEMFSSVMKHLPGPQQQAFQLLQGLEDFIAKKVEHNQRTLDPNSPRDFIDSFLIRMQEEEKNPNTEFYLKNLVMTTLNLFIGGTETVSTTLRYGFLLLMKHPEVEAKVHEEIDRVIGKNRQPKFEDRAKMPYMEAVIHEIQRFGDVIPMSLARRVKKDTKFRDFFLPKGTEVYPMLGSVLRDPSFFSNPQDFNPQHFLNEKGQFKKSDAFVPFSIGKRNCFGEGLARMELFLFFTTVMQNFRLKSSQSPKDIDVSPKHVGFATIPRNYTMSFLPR
Protocol: as §1

[7] = pH 3, chromatographic estimate, read-out: Distribution coefficient, pH 3 (gLogDpH 3)
[8] = pH 7.4, chromatographic estimate, read-out: Distribution coefficient, pH 7.4 (gLogDpH 7.4)
[9] = concentration-response, Cheng-Prusoff

| SMILES | Kd (human β2-AR [1]) [µM] | Kd (human β2-AR [2]) [µM] | chromatographic logD [3, 7] | chromatographic logD [3, 8] | P450 in vitro clearance CLint, CYP2D6 (CYP2D6) [μl/min/pmol P450] | P450 in vitro clearance CLint, CYP2E1 (CYP2E1) [μl/min/pmol P450] | Effect on basal and isoprenaline-stimulated HR (β1) [4] | Effect on isoprenaline HQC response (β2) [4] | Effect on basal HR ([5]; conscious rats, oral gavage 1 mg/kg (d 1), n = 3) | Lowering of basal HR and reduction in isoprenaline-stimulated HR ([5]; conscious rats, oral gavage 3 and 10 mg/kg on subsequent days, compared with 1 mg/kg) | Changes in HQC responses to isoprenaline ([5]; conscious rats, oral gavage, any dose level (1, 3, 10 mg/kg)) | Effect on basal and isoprenaline-stimulated HR after oral gavage [5] | Ki (5-HT2B) [µM] | β1-AR vs. dopamine transporter selectivity (dopamine transporter) [fold] | Ki (dopamine transporter; [9]) [µM] | β1-AR vs. noradrenaline transporter selectivity [6] [fold] | Ki [6, 9] [µM] | P450 in vitro clearance CLint, CYP2A6 (CYP2A6) [μl/min/pmol P450] |
| --- | --- | --- | --- | --- | --- | --- | --- | --- | --- | --- | --- | --- | --- | --- | --- | --- | --- | --- |
| O=C1NCc2cc(OCCNC[C@H](O)COc3ccc4c(c3)OC[C@@H](COCC3CC3)O4)ccc21 [NDD-825] | 5.37 | 1.78 | 1.5 | 2 | 0.02 | 0.02 | suppressed basal and isoprenaline-induced HR | no effect on HQC responses | small but significant lowering of basal HR | more pronounced | No significant changes | caused a reduction of basal and isoprenaline-stimulated HR | – | – | – | – | – | – |
| NC(=O)c1ccc(OCCNC[C@H](O)COc2ccc3c(c2)OC[C@@H](COCC2CC2)O3)cc1 [NDD-713] | 8.91 | 3.63 | 1.7 | 2.3 | – | – | suppressed basal and isoprenaline-induced HR | no effect on HQC responses | – | – | – | caused a reduction of basal and isoprenaline-stimulated HR | > 10 | 53 | 0.8 | 185 | 2.8 | 0.02 |
